Laboratory results published in ChEMBL document CHEMBL4507296 (2021).

What was measured:
[1] = target: Histamine H1 receptor (Homo sapiens) (UniProt P35367); conditions: Compound concentration 10.0 uM
[2] = target: Myosin light chain kinase (Homo sapiens) (UniProt Q32MK0); conditions: Compound concentration 1000.0 nM
[3] = tested on: Phosphatidylinositol 4,5-bisphosphate 3-kinase catalytic subunit alpha isoform (Homo sapiens), P42336 [M1043I]; conditions: Compound concentration 1000.0 nM
[4] = target: Rho-associated protein kinase 2 (Homo sapiens) (UniProt O75116); conditions: Compound concentration 1000.0 nM
[5] = target: Death-associated protein kinase 1 (Homo sapiens) (UniProt P53355); conditions: Compound concentration 1000.0 nM
[6] = target: Myosin-IIIb (Homo sapiens) (UniProt Q8WXR4); conditions: Compound concentration 1000.0 nM
[7] = target: Receptor tyrosine-protein kinase erbB-2 (Homo sapiens) (UniProt P04626); conditions: Compound concentration 1000.0 nM
[8] = target: 5-hydroxytryptamine receptor 7 (Homo sapiens) (UniProt P34969); conditions: Compound concentration 10.0 uM
[9] = target: Eukaryotic translation initiation factor 2-alpha kinase 1 (Homo sapiens) (UniProt Q9BQI3); conditions: Compound concentration 1000.0 nM
[10] = target: Serine/threonine-protein kinase 38 (Homo sapiens) (UniProt Q15208); conditions: Compound concentration 1000.0 nM
[11] = target: Fibroblast growth factor receptor 3 (Homo sapiens) (UniProt P22607); conditions: Compound concentration 1000.0 nM
[12] = target: Serine/threonine-protein kinase 3 (Homo sapiens) (UniProt Q13188); conditions: Compound concentration 1000.0 nM
[13] = target: Cyclin-dependent kinase 11B (Homo sapiens) (UniProt P21127); conditions: Compound concentration 1000.0 nM
[14] = target: Discoidin domain-containing receptor 2 (Homo sapiens) (UniProt Q16832); conditions: Compound concentration 1000.0 nM
[15] = target: Interleukin-1 receptor-associated kinase 4 (Homo sapiens) (UniProt Q9NWZ3); conditions: Compound concentration 1000.0 nM
Interleukin-1 receptor-associated kinase 4 (Homo sapiens), sequence (Q9NWZ3 whole entry): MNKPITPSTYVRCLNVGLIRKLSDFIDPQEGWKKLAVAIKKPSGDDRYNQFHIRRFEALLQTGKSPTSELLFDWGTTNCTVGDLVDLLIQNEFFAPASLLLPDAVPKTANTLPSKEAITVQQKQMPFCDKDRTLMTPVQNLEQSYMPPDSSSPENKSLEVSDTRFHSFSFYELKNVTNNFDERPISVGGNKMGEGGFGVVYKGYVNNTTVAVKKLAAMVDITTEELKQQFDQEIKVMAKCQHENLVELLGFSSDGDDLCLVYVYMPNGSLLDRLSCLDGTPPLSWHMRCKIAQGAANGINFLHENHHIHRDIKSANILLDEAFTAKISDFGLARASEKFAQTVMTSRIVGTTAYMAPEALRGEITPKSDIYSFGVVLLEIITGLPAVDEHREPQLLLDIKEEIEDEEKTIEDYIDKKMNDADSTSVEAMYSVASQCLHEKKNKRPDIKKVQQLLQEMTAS

[16] = target: Death-associated protein kinase 2 (Homo sapiens) (UniProt Q9UIK4); conditions: Compound concentration 1000.0 nM
[17] = target: Cyclin-dependent kinase 2 (Homo sapiens) (UniProt P24941); conditions: Compound concentration 1000.0 nM
[18] = tested on: Receptor-type tyrosine-protein kinase FLT3 (Homo sapiens), P36888 [D835Y]; conditions: Compound concentration 1000.0 nM
[19] = tested on: Tyrosine-protein kinase ABL1 (Homo sapiens), P00519 [M351T]; conditions: Compound concentration 1000.0 nM
[20] = target: Cyclin-dependent kinase 9 (Homo sapiens) (UniProt P50750); conditions: Compound concentration 1000.0 nM
[21] = target: D(1A) dopamine receptor (Homo sapiens) (UniProt P21728); conditions: Compound concentration 10.0 uM
D(1A) dopamine receptor (Homo sapiens), sequence (P21728 whole entry): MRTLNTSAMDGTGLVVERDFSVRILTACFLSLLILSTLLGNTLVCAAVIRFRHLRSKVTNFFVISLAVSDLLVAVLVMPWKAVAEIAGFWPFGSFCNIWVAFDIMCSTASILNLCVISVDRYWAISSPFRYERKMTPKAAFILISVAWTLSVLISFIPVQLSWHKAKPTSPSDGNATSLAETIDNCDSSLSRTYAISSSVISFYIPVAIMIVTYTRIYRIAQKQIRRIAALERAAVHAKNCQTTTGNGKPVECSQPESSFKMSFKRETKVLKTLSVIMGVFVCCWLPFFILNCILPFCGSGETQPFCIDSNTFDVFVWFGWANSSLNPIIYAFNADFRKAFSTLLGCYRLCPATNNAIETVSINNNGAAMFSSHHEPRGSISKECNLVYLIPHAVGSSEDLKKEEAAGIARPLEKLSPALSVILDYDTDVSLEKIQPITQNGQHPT

[22] = target: Ephrin type-B receptor 6 (Homo sapiens) (UniProt O15197); conditions: Compound concentration 1000.0 nM
Ephrin type-B receptor 6 (Homo sapiens), sequence (O15197 whole entry): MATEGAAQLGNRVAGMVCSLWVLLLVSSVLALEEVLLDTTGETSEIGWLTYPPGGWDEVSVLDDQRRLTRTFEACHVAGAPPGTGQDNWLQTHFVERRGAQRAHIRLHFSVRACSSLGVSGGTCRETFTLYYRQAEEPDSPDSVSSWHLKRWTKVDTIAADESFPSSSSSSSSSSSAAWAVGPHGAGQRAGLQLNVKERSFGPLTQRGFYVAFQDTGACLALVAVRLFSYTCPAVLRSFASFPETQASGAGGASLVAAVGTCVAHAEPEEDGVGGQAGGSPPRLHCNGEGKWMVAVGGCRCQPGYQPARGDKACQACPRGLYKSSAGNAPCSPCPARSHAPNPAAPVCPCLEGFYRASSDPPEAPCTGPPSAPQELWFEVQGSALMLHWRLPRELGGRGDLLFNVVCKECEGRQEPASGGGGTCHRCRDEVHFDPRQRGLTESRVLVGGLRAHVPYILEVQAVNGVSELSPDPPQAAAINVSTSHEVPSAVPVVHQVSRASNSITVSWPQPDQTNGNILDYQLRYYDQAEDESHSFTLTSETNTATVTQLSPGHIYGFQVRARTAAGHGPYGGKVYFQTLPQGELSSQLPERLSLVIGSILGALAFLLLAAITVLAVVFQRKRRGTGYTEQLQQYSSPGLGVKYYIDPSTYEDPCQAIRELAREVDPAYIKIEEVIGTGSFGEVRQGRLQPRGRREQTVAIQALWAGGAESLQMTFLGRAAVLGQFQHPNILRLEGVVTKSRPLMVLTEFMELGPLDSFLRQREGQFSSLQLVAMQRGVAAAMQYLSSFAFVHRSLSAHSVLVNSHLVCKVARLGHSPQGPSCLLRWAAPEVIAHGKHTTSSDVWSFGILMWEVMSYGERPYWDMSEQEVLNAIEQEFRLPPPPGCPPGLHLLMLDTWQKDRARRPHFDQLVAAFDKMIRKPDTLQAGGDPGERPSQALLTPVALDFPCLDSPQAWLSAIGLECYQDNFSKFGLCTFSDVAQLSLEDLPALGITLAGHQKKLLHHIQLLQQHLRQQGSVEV

[23] = target: Mitogen-activated protein kinase kinase kinase 20 (Homo sapiens) (UniProt Q9NYL2); conditions: Compound concentration 1000.0 nM
[24] = target: STE20/SPS1-related proline-alanine-rich protein kinase (Homo sapiens) (UniProt Q9UEW8); conditions: Compound concentration 1000.0 nM
[25] = tested on: Tyrosine-protein kinase ABL1 (Homo sapiens), P00519 [F317L]; conditions: Compound concentration 1000.0 nM
[26] = target: TGF-beta receptor type-1 (Homo sapiens) (UniProt P36897); conditions: Compound concentration 1000.0 nM
TGF-beta receptor type-1 (Homo sapiens), sequence (P36897 whole entry): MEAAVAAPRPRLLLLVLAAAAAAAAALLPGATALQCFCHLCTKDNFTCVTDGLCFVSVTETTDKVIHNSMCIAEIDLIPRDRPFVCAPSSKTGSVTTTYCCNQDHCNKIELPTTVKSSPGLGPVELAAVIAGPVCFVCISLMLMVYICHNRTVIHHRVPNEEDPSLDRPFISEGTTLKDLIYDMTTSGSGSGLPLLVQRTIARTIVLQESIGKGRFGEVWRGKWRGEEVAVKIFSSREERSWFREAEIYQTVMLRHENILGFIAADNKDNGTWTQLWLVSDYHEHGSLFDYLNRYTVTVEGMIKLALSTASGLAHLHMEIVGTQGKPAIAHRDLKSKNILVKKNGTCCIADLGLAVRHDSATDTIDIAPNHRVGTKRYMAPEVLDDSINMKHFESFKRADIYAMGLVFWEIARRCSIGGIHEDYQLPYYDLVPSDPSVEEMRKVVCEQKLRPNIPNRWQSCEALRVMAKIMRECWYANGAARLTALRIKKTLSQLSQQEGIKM

[27] = target: 1-phosphatidylinositol 3-phosphate 5-kinase (Homo sapiens) (UniProt Q9Y2I7); conditions: Compound concentration 1000.0 nM
[28] = target: Serine/threonine-protein kinase N2 (Homo sapiens) (UniProt Q16513); conditions: Compound concentration 1000.0 nM
[29] = target: Dual specificity mitogen-activated protein kinase kinase 3 (Homo sapiens) (UniProt P46734); conditions: Compound concentration 1000.0 nM
[30] = target: Platelet-derived growth factor receptor beta (Homo sapiens) (UniProt P09619); conditions: Compound concentration 1000.0 nM
Platelet-derived growth factor receptor beta (Homo sapiens), sequence (P09619 whole entry, canonical isoform): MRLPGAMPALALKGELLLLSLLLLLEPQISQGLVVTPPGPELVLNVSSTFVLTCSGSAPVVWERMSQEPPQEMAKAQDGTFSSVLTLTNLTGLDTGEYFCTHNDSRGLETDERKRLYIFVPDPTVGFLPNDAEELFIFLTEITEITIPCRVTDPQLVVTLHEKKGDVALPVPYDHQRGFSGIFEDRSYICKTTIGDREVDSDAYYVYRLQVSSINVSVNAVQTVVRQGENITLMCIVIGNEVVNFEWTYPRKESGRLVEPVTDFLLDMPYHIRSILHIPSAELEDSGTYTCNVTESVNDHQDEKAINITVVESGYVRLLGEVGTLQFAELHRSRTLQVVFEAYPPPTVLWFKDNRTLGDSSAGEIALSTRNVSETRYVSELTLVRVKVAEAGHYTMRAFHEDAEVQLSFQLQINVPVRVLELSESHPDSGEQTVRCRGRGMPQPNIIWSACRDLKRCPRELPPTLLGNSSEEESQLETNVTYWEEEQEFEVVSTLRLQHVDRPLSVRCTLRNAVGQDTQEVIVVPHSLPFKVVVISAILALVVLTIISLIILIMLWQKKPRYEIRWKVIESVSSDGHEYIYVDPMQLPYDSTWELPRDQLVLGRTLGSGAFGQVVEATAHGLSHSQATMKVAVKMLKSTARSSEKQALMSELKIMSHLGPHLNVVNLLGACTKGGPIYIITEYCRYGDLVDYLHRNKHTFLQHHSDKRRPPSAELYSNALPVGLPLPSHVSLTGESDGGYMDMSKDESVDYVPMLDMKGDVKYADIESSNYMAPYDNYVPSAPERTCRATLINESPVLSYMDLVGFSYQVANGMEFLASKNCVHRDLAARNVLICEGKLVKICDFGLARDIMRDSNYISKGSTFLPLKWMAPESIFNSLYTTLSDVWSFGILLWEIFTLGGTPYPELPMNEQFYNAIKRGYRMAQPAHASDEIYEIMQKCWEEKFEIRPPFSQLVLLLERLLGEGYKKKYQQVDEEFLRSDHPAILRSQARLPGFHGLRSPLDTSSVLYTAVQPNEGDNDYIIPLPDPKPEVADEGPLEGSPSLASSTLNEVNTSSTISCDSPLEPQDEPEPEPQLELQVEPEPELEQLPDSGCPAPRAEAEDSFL

[31] = target: Phosphatidylinositol 4,5-bisphosphate 3-kinase catalytic subunit delta isoform (Homo sapiens) (UniProt O00329); conditions: Compound concentration 1000.0 nM
[32] = target: Serine/threonine-protein kinase LATS1 (Homo sapiens) (UniProt O95835); conditions: Compound concentration 1000.0 nM
[33] = tested on: Receptor-type tyrosine-protein kinase FLT3 (Homo sapiens), P36888 [UNDEFINED MUTATION]; conditions: Compound concentration 1000.0 nM
[34] = target: Casein kinase I isoform gamma-2 (Homo sapiens) (UniProt P78368); conditions: Compound concentration 1000.0 nM
Casein kinase I isoform gamma-2 (Homo sapiens), sequence (P78368 whole entry, looked up, canonical isoform): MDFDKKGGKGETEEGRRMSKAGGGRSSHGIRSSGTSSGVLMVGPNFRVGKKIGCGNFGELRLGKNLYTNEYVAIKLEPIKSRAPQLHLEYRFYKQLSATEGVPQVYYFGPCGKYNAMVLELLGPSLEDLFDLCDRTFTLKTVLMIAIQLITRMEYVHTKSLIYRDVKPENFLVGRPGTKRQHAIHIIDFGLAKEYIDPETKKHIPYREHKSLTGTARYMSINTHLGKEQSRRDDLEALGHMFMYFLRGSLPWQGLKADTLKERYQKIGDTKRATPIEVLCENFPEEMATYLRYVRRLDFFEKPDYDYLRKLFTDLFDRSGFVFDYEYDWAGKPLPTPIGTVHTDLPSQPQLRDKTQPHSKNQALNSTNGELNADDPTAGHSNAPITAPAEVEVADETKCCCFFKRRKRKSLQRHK

[35] = tested on: Tyrosine-protein kinase ABL1 (Homo sapiens), P00519 [Q252H]; conditions: Compound concentration 1000.0 nM
[36] = target: Tyrosine-protein kinase JAK1 (Homo sapiens) (UniProt P23458); conditions: Compound concentration 1000.0 nM
[37] = target: Ephrin type-A receptor 5 (Homo sapiens) (UniProt P54756); conditions: Compound concentration 1000.0 nM
[38] = target: Muscarinic acetylcholine receptor M3 (Homo sapiens) (UniProt P20309); assay: Muscarinic M3 (human) CEREP ligand profiling; conditions: Compound concentration 10.0 uM
[39] = target: MTNR1B (Cricetulus griseus) (UniProt G3H6N9); assay: Melatonin 2 (hamster) CEREP ligand profiling; conditions: Compound concentration 10.0 uM
[40] = target: Inhibitor of nuclear factor kappa-B kinase subunit beta (Homo sapiens) (UniProt O14920); conditions: Compound concentration 1000.0 nM
[41] = target: Serine/threonine-protein kinase N1 (Homo sapiens) (UniProt Q16512); conditions: Compound concentration 1000.0 nM
[42] = tested on: Phosphatidylinositol 4,5-bisphosphate 3-kinase catalytic subunit alpha isoform (Homo sapiens), P42336 [C420R]; conditions: Compound concentration 1000.0 nM
[43] = target: G protein-coupled receptor kinase 3 (Homo sapiens) (UniProt P35626); conditions: Compound concentration 1000.0 nM
[44] = tested on: Phosphatidylinositol 4,5-bisphosphate 3-kinase catalytic subunit alpha isoform (Homo sapiens), P42336 [H1047Y]; conditions: Compound concentration 1000.0 nM
[45] = target: Bone morphogenetic protein receptor type-2 (Homo sapiens) (UniProt Q13873); conditions: Compound concentration 1000.0 nM

Myosin light chain kinase (Homo sapiens), sequence (Q32MK0 whole entry, canonical isoform): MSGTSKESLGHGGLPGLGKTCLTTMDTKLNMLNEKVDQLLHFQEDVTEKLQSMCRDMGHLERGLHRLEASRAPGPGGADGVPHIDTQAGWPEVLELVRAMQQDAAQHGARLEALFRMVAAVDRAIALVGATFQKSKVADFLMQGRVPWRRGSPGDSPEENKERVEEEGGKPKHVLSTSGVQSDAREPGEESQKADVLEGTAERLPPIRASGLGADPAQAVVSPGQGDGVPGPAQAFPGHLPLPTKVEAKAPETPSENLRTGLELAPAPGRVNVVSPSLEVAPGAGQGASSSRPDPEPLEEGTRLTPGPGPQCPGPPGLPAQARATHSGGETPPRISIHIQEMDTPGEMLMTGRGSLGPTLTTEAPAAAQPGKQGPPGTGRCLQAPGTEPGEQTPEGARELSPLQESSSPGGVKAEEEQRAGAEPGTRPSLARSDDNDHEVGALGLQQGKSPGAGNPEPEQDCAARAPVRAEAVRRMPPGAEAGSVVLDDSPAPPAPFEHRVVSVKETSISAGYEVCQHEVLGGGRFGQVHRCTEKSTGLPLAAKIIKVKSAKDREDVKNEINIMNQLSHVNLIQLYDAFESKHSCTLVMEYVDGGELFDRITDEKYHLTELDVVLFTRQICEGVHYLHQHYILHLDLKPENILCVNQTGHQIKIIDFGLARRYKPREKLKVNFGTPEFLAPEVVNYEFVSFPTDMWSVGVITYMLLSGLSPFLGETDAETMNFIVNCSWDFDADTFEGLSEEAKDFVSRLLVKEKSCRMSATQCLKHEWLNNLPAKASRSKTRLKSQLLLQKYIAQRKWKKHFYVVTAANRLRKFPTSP

Work on `C[C@H](c1ccc(F)cc1)N(Cc1cccc(C(=O)O)c1)C(=O)c1cnc2ccccc2c1` [PF-05105679] yielded an inhibition [1] of 22.9%, a residual activity [2] of 100% and a residual activity [3] of 100%. It also gave a residual activity [4] of 100%, a residual activity [5] of 97% and a residual activity [6] of 100%. The residual activity [7] was 100%, the inhibition [8] was -2.7% and the residual activity [9] was 84%. For the same molecule, the residual activity [10] was 100%, the residual activity [11] was 82% and the residual activity [12] was 100%. It also gave a residual activity [13] of 84%, a residual activity [14] of 96% and a residual activity [15] of 95%. The residual activity [16] was 88%, the residual activity [17] was 100% and the residual activity [18] was 100%. It also gave a residual activity [19] of 94%, a residual activity [20] of 89% and an inhibition [21] of -0.79%. The residual activity [22] was 88%, the residual activity [23] was 100% and the residual activity [24] was 82%. The residual activity [25] was 99%, the residual activity [26] was 96% and the residual activity [27] was 100%. For the same molecule, the residual activity [28] was 86%, the residual activity [29] was 91% and the residual activity [30] was 100%. The residual activity [31] was 100%, the residual activity [32] was 100% and the residual activity [33] was 100%. It also gave a residual activity [34] of 100%, a residual activity [35] of 90% and a residual activity [36] of 100%. For the same molecule, the residual activity [37] was 98%, the inhibition [38] was 21% and the inhibition [39] was 32%. For the same molecule, the residual activity [40] was 100%, the residual activity [41] was 100% and the residual activity [42] was 100%. It also gave a residual activity [43] of 40%, a residual activity [44] of 100% and a residual activity [45] of 75%.
